Test system: medial femoral condyle cartilage of goat stifle joint
Test: Modified Mankin score of femoral cartilage after intra-articular injection in goats (Example 34)
Format: in vivo
Description: A lightly crosslinked hydrogel prepared by reaction of vinyl-sulfone-modified hyaluronic acid with PEG-dithiol (HA-VS-PEG-(SH)2), containing the corticosteroid, triamcinolone acetonide, was injected into the intraarticular space of the stifle joint of female goats. Morphological, synovial fluid and histological examinations were conducted to evaluate local and systemic effects of such injections. Details of the study are provided below.
All test materials were stored at room temperature prior to use. For each Test or Control Material, a 1.5 ml dosage was prepared for each individual intra-articular injection.
A standard technique was used to inject each stifle joint, A 2-inch by 21 gauge sized sterile needle was introduced into the intra-articular space via an anteromedial approach. The lateral intercondylar notch wall of the medial femoral condyle was felt and the needle backed slightly off. 1.5 ml of the appropriate Test Material was injected into the right joint. The injection needle was removed and pressure was maintained on the injection site. The injected stifle joint was then cycled 20-times through a full range of motion. Immediately following this, the left stifle joint was cleansed with chlorohexidine scrub alternating with 70% isopropyl alcohol three times and painted with iodine solution and 1.5 ml of the Control Material was injected into the left stifle joint in a similar manner as described above for the right stifle. The injection needle was removed and pressure maintained on the injection site. The injected stifle joint was then cycled 20-times through a full range of motion.
Necropsy: Animals were humanely sacrificed at either 14 days or 28 days day post initial injection with an intravenous injection consisting of Diazepam 0.22 mg/kg and Ketamine 10 mg/kg for induction of general anesthesia. Following this, the anesthetized animals were given an IV overdose of concentrated potassium chloride (KCl) until the cardiac arrest had been verified.
Immediately after dissection and following gross joint surface evaluation a sagital section of each joint was cut through the medial femoral condyle (MFC). These sections were placed individually in 10% neutral buffered formalin. The fixed tissue was shipped by overnight carrier to Premier Laboratories for processing. The right and left MFC sections were processed using standard histological techniques and stained with hematoxylin and eosin (H&E) and Safranin-O (SAF-O) with a fast green counter stain. The slides from the MFC sections were evaluated by the Mankin Scoring System for osteoarthritis as described in Table 12.

[1] = 28 day group, animal died prematurely (3837: 24 days, 3588: 19 days on study), not included in averages

Compound	Cells (modified Mankin), MEAN (female, goat, in vivo, 14 days)	Safranin-O Stain (modified Mankin), MEAN (female, goat, in vivo, 14 days)	Structure (modified Mankin), MEAN (female, goat, in vivo, 14 days)	Tide Mark Integrity (modified Mankin) (female, goat, in vivo, 14 days)	Tide Mark Integrity (modified Mankin), MEAN (female, goat, in vivo, 14 days)	Total Mankin Score, MEAN (female, goat, in vivo, 14 days)	Cells (modified Mankin), MEAN (female, goat, in vivo, 28 days)	Safranin-O Stain (modified Mankin), MEAN (female, goat, in vivo, 28 days)	Structure (modified Mankin), MEAN (female, goat, in vivo, 28 days)	Tide Mark Integrity (modified Mankin) (female, goat, in vivo, 28 days)	Tide Mark Integrity (modified Mankin), MEAN (female, goat, in vivo, 28 days)	Total Mankin Score, MEAN (female, goat, in vivo, 28 days)	Cells (modified Mankin) [1]	Safranin-O Stain (modified Mankin) [1]	Structure (modified Mankin) [1]	Tide Mark Integrity (modified Mankin) [1]	Total Mankin Score [1]	Safranin-O Stain (modified Mankin) (female, goat, in vivo, 28 days)
CC1(C)O[C@@H]2C[C@H]3[C@@H]4CCC5=CC(=O)C=C[C@]5(C)[C@@]4(F)[C@@H](O)C[C@]3(C)[C@]2(C(=O)CO)O1 [Triamcinolone Acetonide 2 mg/ml, triamcinolone acetonide]	0.7	3.0	2.7	0.0	0.0	6.3	2.3	3.3	2.7	0.0	0.0	8.3						
CC1(C)O[C@@H]2C[C@H]3[C@@H]4CCC5=CC(=O)C=C[C@]5(C)[C@@]4(F)[C@@H](O)C[C@]3(C)[C@]2(C(=O)CO)O1 [Triamcinolone Acetonide 8 mg/ml, triamcinolone acetonide]	0.3	3.3	1.7	0.0	0.0	5.3	2.0	4.0	3.0	0.0	0.0	9.0	3.0	3.0	4.0	0.0	10.0	4.0
